Numbered stars: 1 amine (or outer) side, 2 acyl side, 3 side chain; on linkers, the order of the positions; unused ones are H or OH. Square brackets hold non-standard residues; d marks the D form. Peptide text beside a SMILES is read from it. * marks the point of attachment. Acetyl(1-adamantyl) = O=C(CC12CC3CC(CC(C3)C1)C2)*; Cyclohexylacetyl(1-SH) = O=C(CC1(S)CCCCC1)*; Ethylenediamine = C(CN[*:2])N[*:1]; Orn = NCCC[C@H](N)C(=O)O; Abu = CC[C@H](N)C(=O)O; X1 = CCC(S)(CC)CC(=O)*; Propionyl = CCC(=O)*
Key:
[1] = system: antidiuretic response to arginine vasopressin; parameters: species or system rats; conditions: rat, in vivo
Procedure: Activity as antidiuretic agonists was determined by intravenous injection of the compounds being evaluated in ethanol-anesthesized water-loaded rats in accordance with Sawyer, Endocrinology, vol. 63 (1958) at 694. Antagonism of the antidiuretic response to subsequent injections of arginine vasopressin was tested by the method of Sawyer et al., Science, vol. 212 (1981) at 49. Antagonistic potencies were determined and expressed as "effective doses" and pA2 values. The "effective dose" is defined as the dose (in nanomoles per kilogram) that reduces the response seen from 2x units of agonist injected 20 min after the dose of antagonist to the response with 1x units of agonist. Estimated in vivo "pA2 " values represent the negative logarithms of the effective doses, divided by the estimated volume of distribution (67 ml/kg).

[2] = system: vasopressor response to arginine vasopressin; conditions: in vivo
Procedure: Antagonism to the vasopressor response was estimated in accordance with […] et al., J. Med. Chem., vol. 17 (1974) at 969. The values are expressed as pA2 values, defined as in Schild et al., Br. J. Pharmacol., vol. 2 (1947) at 189. Antagonistic potencies were determined and expressed as "effective doses" and pA2 values. The "effective dose" is defined as the dose (in nanomoles per kilogram) that reduces the response seen from 2x units of agonist injected 20 min after the dose of antagonist to the response with 1x units of agonist. Estimated in vivo "pA2 " values represent the negative logarithms of the effective doses, divided by the estimated volume of distribution (67 ml/kg).

Row | SMILES | Antiantidiuretic pA2 [1] | Antivasopressor pA2 [2]
1 | CCOc1ccc(C[C@@H](NC(=O)CC23CC4CC(CC(C4)C2)C3)C(=O)N[C@@H](Cc2ccccc2)C(=O)N[C@H](C(=O)N[C@@H](CC(N)=O)C(=O)N[C@@H](CCCNC(=N)N)C(=O)N2CCC[C@H]2C(=O)N[C@@H](CCCNC(=N)N)C(N)=O)C(C)C)cc1 [(1-adamantyl)acetyl-D-(O-ethyl)tyrosyl-phenylalanyl-valyl-asparaginyl-arginyl-prolyl-argininamide] ({Acetyl(1-adamantyl)}-[dY](Et)FVNRPR-NH2) | 7.73 ± 0.08 | 8.01 ± 0.05
2 | CCOc1ccc(C[C@@H](NC(=O)CC23CC4CC(CC(C4)C2)C3)C(=O)N[C@@H](Cc2ccccc2)C(=O)N[C@H](C(=O)N[C@@H](CC(N)=O)C(=O)N[C@@H](CC)C(=O)N2CCC[C@H]2C(=O)N[C@@H](CCCNC(=N)N)C(N)=O)C(C)C)cc1 [(1-adamantyl)acetyl-D-(O-ethyl)tyrosyl-phenylalanyl-valyl-asparaginyl-(2-amino)butyryl-prolyl-argininamide] ({Acetyl(1-adamantyl)}-[dY](Et)FVN[Abu]PR-NH2) | 7.20 ± 0.04 | 7.43 ± 0.06
3 | CCOc1ccc(C[C@@H](NC(=O)CC23CC4CC(CC(C4)C2)C3)C(=O)N[C@@H](Cc2ccccc2)C(=O)N[C@H](C(=O)N[C@@H](CC(N)=O)C(=O)N[C@@H](CCCCN)C(=O)N2CCC[C@H]2C(=O)N[C@@H](CCCNC(=N)N)C(N)=O)C(C)C)cc1 [(1-adamantyl)acetyl-D-(O-ethyl)-tyrosyl-phenylalanyl-valyl-asaparaginyl-lysyl-prolyl-argininamide] ({Acetyl(1-adamantyl)}-[dY](Et)FVNKPR-NH2) | 7.81 ± 0.08 | 8.02 ± 0.06
4 | CCOc1ccc(C[C@@H](NC(=O)CC2(S)CCCCC2)C(=O)N[C@@H](Cc2ccccc2)C(=O)N[C@H](C(=O)N[C@@H](CC(N)=O)C(=O)N[C@@H](CC)C(=O)N2CCC[C@H]2C(=O)N[C@@H](CCCNC(=N)N)C(=O)NCC(N)=O)C(C)C)cc1 [(1-mercaptocyclohexyl)acetyl-D-(O-ethyl)tyrosyl-phenylalanyl-valyl-asparaginyl-(2-amino)butyryl-prolyl-arginyl-glycinamide] ({Cyclohexylacetyl(1-SH)}-[dY](Et)FVN[Abu]PRG-NH2) | 7.42 ± 0.05 | 7.71 ± 0.05
5 | CCOc1ccc(C[C@@H](NC(=O)CC23CC4CC(CC(C4)C2)C3)C(=O)N[C@@H](Cc2ccccc2)C(=O)N[C@H](C(=O)N[C@@H](CC(N)=O)C(=O)N[C@@H](CC)C(=O)N2CCC[C@H]2C(=O)N[C@@H](CCCNC(=N)N)C(=O)N[C@@H](CCCNC(=N)N)C(N)=O)C(C)C)cc1 [(1-adamantyl)acetyl-D-(O-ethyl)tyrosyl-phenylalanyl-valyl-asparaginyl-(2-amino)butyryl-prolyl-arginyl-argininamide] ({Acetyl(1-adamantyl)}-[dY](Et)FVN[Abu]PRR-NH2) | 8.11 ± 0.07 | 7.75 ± 0.07
6 | CCOc1ccc(C[C@@H](NC(=O)CC23CC4CC(CC(C4)C2)C3)C(=O)N[C@@H](Cc2ccccc2)C(=O)N[C@H](C(=O)N[C@@H](CC(N)=O)C(=O)N[C@@H](CCCN)C(=O)N2CCC[C@H]2C(=O)N[C@@H](CCCNC(=N)N)C(N)=O)C(C)C)cc1 [(1-adamantyl)acetyl-D-(O-ethyl)tyrosyl-phenylalanyl-valyl-asparaginyl-ornithyl-prolyl-argininamide] ({Acetyl(1-adamantyl)}-[dY](Et)FVN[Orn]PR-NH2) | 7.81 ± 0.10 | 7.33 ± 0.06
7 | CCOc1ccc(C[C@@H](NC(=O)CC23CC4CC(CC(C4)C2)C3)C(=O)N[C@@H](Cc2ccccc2)C(=O)N[C@H](C(=O)N[C@@H](CC(N)=O)C(=O)N[C@@H](CC)C(=O)N2CCC[C@H]2C(=O)N[C@H](CCCNC(=N)N)C(=O)N[C@@H](CCCNC(=N)N)C(N)=O)C(C)C)cc1 [(1-adamantyl)acetyl-D-(O-ethyl)tyrosyl-phenylalanyl-valyl-asparaginyl-(2-amino)butyryl-prolyl-D-arginyl-argininamide] ({Acetyl(1-adamantyl)}-[dY](Et)FVN[Abu]P[dR]R-NH2) | 7.85 ± 0.08 | 7.49 ± 0.06
8 | CCOc1ccc(C[C@@H](NC(=O)CC)C(=O)N[C@@H](Cc2ccccc2)C(=O)N[C@H](C(=O)N[C@@H](CC(N)=O)C(=O)N[C@@H](CC)C(=O)N2CCC[C@H]2C(=O)N[C@@H](CCCNC(=N)N)C(=O)N[C@@H](CCCNC(=N)N)C(N)=O)C(C)C)cc1 [propionyl-D-(O-ethyl)tyrosyl-phenylalanyl-valyl-asparaginyl-(2-amino)butyryl-prolyl-arginyl-argininamide] (Propionyl-[dY](Et)FVN[Abu]PRR-NH2) | 7.74 ± 0.07 | 6.71 ± 0.09
9 | CCOc1ccc(C[C@@H](NC(=O)CC(S)(CC)CC)C(=O)N[C@@H](Cc2ccccc2)C(=O)N[C@H](C(=O)N[C@@H](CC(N)=O)C(=O)N[C@@H](CC)C(=O)N2CCC[C@H]2C(=O)N[C@@H](CCCNC(=N)N)C(=O)NCC(N)=O)C(C)C)cc1 [(3-ethyl-3-mercapto)valeroyl-D-(O-ethyl)tyrosyl-phenylalanyl-valyl-asparaginyl-(2-amino)butyryl-prolyl-arginyl-glycinamide] (X1-[dY](Et)FVN[Abu]PRG-NH2) | 7.09 ± 0.09 | 6.94 ± 0.04
10 | CCOc1ccc(C[C@@H](NC(=O)CC2(S)CCCCC2)C(=O)N[C@@H](Cc2ccccc2)C(=O)N[C@H](C(=O)N[C@@H](CC(N)=O)C(=O)N[C@@H](CS)C(=O)N2CCC[C@H]2C(=O)N[C@@H](CCCNC(=N)N)C(=O)NCC(N)=O)C(C)C)cc1 [(1-mercaptocyclohexyl)acetyl-D-(O-ethyl)tyrosyl-phenylalanyl-valyl-asparaginyl-cysteinyl-prolyl-arginyl-glycinamide] ({Cyclohexylacetyl(1-SH)}-[dY](Et)FVNCPRG-NH2) | 7.05 ± 0.08 | 7.51 ± 0.03
11 | CCOc1ccc(C[C@@H](NC(=O)CC23CC4CC(CC(C4)C2)C3)C(=O)N[C@@H](Cc2ccccc2)C(=O)N[C@H](C(=O)N[C@@H](CC(N)=O)C(=O)N[C@@H](CC)C(=O)N2CCC[C@H]2C(=O)N[C@@H](CCCNC(=N)N)C(=O)NCCN)C(C)C)cc1 [(1-adamantyl)acetyl-D-(O-ethyl)tyrosyl-phenylalanyl-valyl-asparaginyl-(2-amino)butyryl-prolyl-arginine-N-(2-aminoethyl)amide] ({Acetyl(1-adamantyl)}-[dY](Et)FVN[Abu]PR-Ethylenediamine) | 7.71 ± 0.09 | 7.33 ± 0.09
12 | CCOc1ccc(C[C@@H](NC(=O)CC23CC4CC(CC(C4)C2)C3)C(=O)N[C@@H](Cc2ccccc2)C(=O)N[C@H](C(=O)N[C@@H](CC(N)=O)C(=O)N[C@@H](CC)C(=O)N2CCC[C@H]2C(=O)N[C@@H](CCCNC(=N)N)C(=O)NCC(N)=O)C(C)C)cc1 [(1-adamantyl)acetyl-D-(O-ethyl)tyrosyl-phenylalanyl-valyl-asparaginyl-(2-amino)butyryl-prolyl-arginyl-glycinamide] ({Acetyl(1-adamantyl)}-[dY](Et)FVN[Abu]PRG-NH2) | 7.50 ± 0.02 | 7.10 ± 0.07
13 | CCOc1ccc(C[C@@H](NC(=O)CC23CC4CC(CC(C4)C2)C3)C(=O)N[C@@H](Cc2ccccc2)C(=O)N[C@H](C(=O)N[C@@H](CC(N)=O)C(=O)N[C@@H](CC)C(=O)N2CCC[C@H]2C(=O)N[C@@H](CCCNC(=N)N)C(=O)N[C@@H](C)C(N)=O)C(C)C)cc1 [(1-adamantyl)acetyl-D-(O-ethyl)tyrosyl-phenylalanyl-valyl-asparaginyl-(2-amino)butyryl-prolyl-arginyl-alaninamide] ({Acetyl(1-adamantyl)}-[dY](Et)FVN[Abu]PRA-NH2) | 6.55 ± 0.04 | 7.18 ± 0.04
